In US20080113926A1, “9A-Carbamoyl-Y-Aminopropyl- And 9A-Thiocabamoyl-Y-Aminopropyl-Azalides With Antimalarial Activity” (priority 2005, published 2008):
≈ marks a conversion by molar mass, not a printed value.

Columns and labels:
Format in all cases: cell-based
[1] = system: Plasmodium falciparum clone CDC/Sierra Leone I (D-6); assay: In vitro antimalarial [3H]-hypoxanthine incorporation serial dilution assay, D6; conditions: Plasmodium falciparum; P. falciparum D6, parasites exposed for 72 hours
From the text: (§1) The in vitro screens for intrinsic antimalarial activity were based on modifications of the procedures described by Desjardins R E, Canfield C J, Haynes J D, Chulay J D. (Quantitative assessment of antimalarial activity in vitro by a semiautomated microdilution technique. Antimicrob Agents Chemother. 1979 December; 16(6):710-8), Chulay J D, Haynes J D, Diggs C L. (Plasmodium falciparum: Assessment of in vitro growth by [3H]hypoxanthine incorporation. Exp. Parasitol. 1983 55:138-146), and Milhous W K, Weatherly N F, Bowdre J H, Desjardins R E. (In vitro activities of and mechanisms of resistance to antifol antimalarial drugs. Antimicrob Agents Chemother. 1985 April; 27(4):525-30). The system was limited to the assessment of the intrinsic activity against the erythrocytic asexual life cycle (blood schizontocides). Two Plasmodium falciparum clones from CDC/Indochina III (W-2) and CDC/Sierra Leone I (D-6) (Oduola A M, Weatherly N F, Bowdre J H, Desjardins R E. Plasmodium falciparum: cloning by single-erythrocyte micromanipulation and heterogeneity in vitro. Exp Parasitol. 1988 66(1):86-95) were used for all assays. TM91C235, a multiple drug resistant isolate from Thailand, was used for the prescreening assay. W-2 is resistant to chloroquine, quinine, and pyrimethamine and susceptible to mefloquine. D-6 tends to be more resistant to mefloquine and susceptible to chloroquine, quinine, and pyrimethamine. All documents cited in this paragraph are incorporated by reference in their entirety.
(§2) All parasites were maintained in continuous long term cultures in RPMI-1640 medium supplemented with 6% washed human A positive (A+) (erythrocytes, 25 mM Hepes, […], and 10% heat inactivated A+ human plasma or ALBUMAX® (lipid-rich bovine serum albumin; Invitrogen, Carlsbad, Calif.). All cultures and assays were conducted at 37° C. under an atmosphere of 5% CO2 and 5% O2, with a balance of N2.
(§3) The prescreening assay uses TM91C235 diluted at a 0.4% parasitemia in a 1% hematocrit in folic acid free and p-aminobenzoic acid free media RPMI-1640 and ALBUMAX®. One mg of the compound is typically dissolved in 100 μl of dimethyl sulfoxide (DMSO). The compound is further diluted in culture medium (FF) with ALBUMAX® for the first initial starting concentration. The rest of the stock drug solution was kept at −70° C. The isolate was preexposed, in duplicate, at three concentrations (25,000 ng/ml, 2,500 ng/ml, and 25 ng/ml) of the test compound for 48 hr in a 96-well microtiter plate (MTP) using the BIOMEK® 2000 automated laboratory workstation. Each MTP contains chloroquine as control to assess the relative activity of the compound and to monitor the response of TM91C235.
(§4) After the preincubation, [^3H]-hypoxanthine was added to each well of the MTP. (The assay relies on the incorporation of radiolabeled hypoxanthine by the parasites, which indicates reproduction, and inhibition of isotope incorporation was attributed to activity of known or candidate antimalarial drugs). After 72 hr of total incubation time, the MTP were frozen to lyse the erythrocytes and parasites. The parasite DNA was recovered by harvesting the lysate onto glass-fiber filter plates using a Packard FilterMate™ Cell Harvester. The radioactivity was counted on a Packard TopCount™ microplate scintillation counter. The results were recorded as counts per minutes (CPM) per well at each drug concentration divided by the arithmetic mean of the CPM from the three untreated infection parasite control wells.
(§5) The serial dilution assay was conducted using the same assay conditions and stock solution of the compound used for the preliminary screen, described above. Both the D-6 and the W-2 clones were used. The compounds were diluted two-fold over 11 different concentration ranges with a starting concentration that was based on the preliminary screen. […]

[2] = system: Plasmodium falciparum clone CDC/Indochina III (W-2); assay: In vitro antimalarial [3H]-hypoxanthine incorporation serial dilution assay, W2; conditions: Plasmodium falciparum, W2, 72 h, P. falciparum W2, parasites exposed for 72 hours
From the text: as §1, §2, §3, §4, §5

[3] = system: Plasmodium falciparum TM91C235; assay: In vitro antimalarial [3H]-hypoxanthine incorporation serial dilution assay, TM91C235; conditions: Plasmodium falciparum; P. falciparum TM91C235, parasites exposed for 72 hours

Compound	IC50 [1] [µg/mL]	IC50 [2] [µg/mL]	IC50 [3] [µg/mL]
CC[C@H]1OC(=O)[C@H](C)[C@@H](O[C@H]2C[C@@](C)(OC)[C@@H](O)[C@H](C)O2)[C@H](C)[C@@H](O[C@@H]2O[C@H](C)C[C@H](N(C)C)[C@H]2O)[C@](C)(O)C[C@@H](C)CN(CCCNC(=O)Nc2ccc3ccccc3c2)[C@H](C)[C@@H](O)[C@]1(C)O [Compound 1]	0.145 (≈ 0.151 µM)	0.141 (≈ 0.146 µM)	0.0832 (≈ 0.0866 µM)
CC[C@H]1OC(=O)[C@H](C)[C@@H](O[C@H]2C[C@@](C)(OC)[C@@H](O)[C@H](C)O2)[C@H](C)[C@@H](O[C@@H]2O[C@H](C)C[C@H](N(C)C)[C@H]2O)[C@](C)(O)C[C@@H](C)CN(CCCNC(=O)Nc2ccccc2C(F)(F)F)[C@H](C)[C@@H](O)[C@]1(C)O [Compound 2]	0.311 (≈ 0.318 µM)	0.36 (≈ 0.368 µM)	0.23 (≈ 0.234 µM)
CC[C@H]1OC(=O)[C@H](C)[C@@H](O[C@H]2C[C@@](C)(OC)[C@@H](O)[C@H](C)O2)[C@H](C)[C@@H](O[C@@H]2O[C@H](C)C[C@H](N(C)C)[C@H]2O)[C@](C)(O)C[C@@H](C)CN(CCCNC(=S)NCCCc2ccccc2)[C@H](C)[C@@H](O)[C@]1(C)O [Compound 3]	0.176 (≈ 0.181 µM)	0.112 (≈ 0.116 µM)	0.117 (≈ 0.12 µM)
CC[C@H]1OC(=O)[C@H](C)[C@@H](O[C@H]2C[C@@](C)(OC)[C@@H](O)[C@H](C)O2)[C@H](C)[C@@H](O[C@@H]2O[C@H](C)C[C@H](N(C)C)[C@H]2O)[C@](C)(O)C[C@@H](C)CN(CCCNC(=S)N(CCC#N)CCCc2ccccc2)[C@H](C)[C@@H](O)[C@]1(C)O [Compound 4]	0.228 (≈ 0.223 µM)	0.0768 (≈ 0.0751 µM)	0.0541 (≈ 0.0529 µM)
CC[C@H]1OC(=O)[C@H](C)[C@@H](O[C@H]2C[C@@](C)(OC)[C@@H](O)[C@H](C)O2)[C@H](C)[C@@H](O[C@@H]2O[C@H](C)C[C@H](N(C)C)[C@H]2O)[C@](C)(O)C[C@@H](C)CN(CCCN(CCC#N)C(=S)NCCc2ccccc2)[C@H](C)[C@@H](O)[C@]1(C)O [Compound 5]	0.091 (≈ 0.0902 µM)	0.169 (≈ 0.167 µM)	0.0732 (≈ 0.0726 µM)
CC[C@H]1OC(=O)[C@H](C)[C@@H](O[C@H]2C[C@@](C)(OC)[C@@H](O)[C@H](C)O2)[C@H](C)[C@@H](O[C@@H]2O[C@H](C)C[C@H](N(C)C)[C@H]2O)[C@](C)(O)C[C@@H](C)CN(CCCNC(=O)NC(C)c2cccc3ccccc23)[C@H](C)[C@@H](O)[C@]1(C)O (some centres unmarked) [Compound 6]	0.292 (≈ 0.295 µM)	0.246 (≈ 0.249 µM)	0.118 (≈ 0.119 µM)
CC[C@H]1OC(=O)[C@H](C)[C@@H](O[C@H]2C[C@@](C)(OC)[C@@H](O)[C@H](C)O2)[C@H](C)[C@@H](O[C@@H]2O[C@H](C)C[C@H](N(C)C)[C@H]2O)[C@](C)(O)C[C@@H](C)CN(CCCN(CCC#N)C(=O)Nc2ccc3ccccc3c2)[C@H](C)[C@@H](O)[C@]1(C)O [Compound 7]	0.156 (≈ 0.154 µM)	0.298 (≈ 0.294 µM)	0.143 (≈ 0.141 µM)
CC[C@H]1OC(=O)[C@H](C)[C@@H](O[C@H]2C[C@@](C)(O)[C@@H](O)[C@H](C)O2)[C@H](C)[C@@H](O[C@@H]2O[C@H](C)C[C@H](N(C)C)[C@H]2O)[C@](C)(O)C[C@@H](C)CN(CCCNC(=O)Nc2cccc3ccccc23)[C@H](C)[C@@H](O)[C@]1(C)O [Compound 8]	0.268 (≈ 0.282 µM)	0.176 (≈ 0.186 µM)	0.143 (≈ 0.151 µM)
CC[C@H]1OC(=O)[C@H](C)[C@@H](O[C@H]2C[C@@](C)(OC)[C@@H](O)[C@H](C)O2)[C@H](C)[C@@H](O[C@@H]2O[C@H](C)C[C@H](N(C)C)[C@H]2O)[C@](C)(O)C[C@@H](C)CN(CCCNC(=S)Nc2cccc3ccccc23)[C@H](C)[C@@H](O)[C@]1(C)O [Compound 9]	0.144 (≈ 0.147 µM)	0.17 (≈ 0.174 µM)	0.159 (≈ 0.163 µM)
CC[C@H]1OC(=O)[C@H](C)[C@@H](O[C@H]2C[C@@](C)(OC)[C@@H](O)[C@H](C)O2)[C@H](C)[C@@H](O[C@@H]2O[C@H](C)C[C@H](N(C)C)[C@H]2O)[C@](C)(O)C[C@@H](C)CN(CCCN(CCC#N)C(=O)NC(C)c2cccc3ccccc23)[C@H](C)[C@@H](O)[C@]1(C)O (some centres unmarked) [Compound 10]	0.254 (≈ 0.244 µM)	0.308 (≈ 0.296 µM)	0.16 (≈ 0.153 µM)
CC[C@H]1OC(=O)[C@H](C)[C@@H](O[C@H]2C[C@@](C)(OC)[C@@H](O)[C@H](C)O2)[C@H](C)[C@@H](O[C@@H]2O[C@H](C)C[C@H](N(C)C)[C@H]2O)[C@](C)(O)C[C@@H](C)CN(CCCN(CCC#N)C(=O)Nc2ccc(Cl)cc2Cl)[C@H](C)[C@@H](O)[C@]1(C)O [Compound 11]	0.276 (≈ 0.267 µM)	0.217 (≈ 0.21 µM)	0.161 (≈ 0.156 µM)
CC[C@H]1OC(=O)[C@H](C)[C@@H](O[C@H]2C[C@@](C)(OC)[C@@H](O)[C@H](C)O2)[C@H](C)[C@@H](O[C@@H]2O[C@H](C)C[C@H](N(C)C)[C@H]2O)[C@](C)(O)C[C@@H](C)CN(CCCN(CCC#N)C(=S)NCc2ccccc2)[C@H](C)[C@@H](O)[C@]1(C)O [Compound 12]	0.233 (≈ 0.235 µM)	0.2 (≈ 0.201 µM)	0.163 (≈ 0.164 µM)
CC[C@H]1OC(=O)[C@H](C)[C@@H](O[C@H]2C[C@@](C)(OC)[C@@H](O)[C@H](C)O2)[C@H](C)[C@@H](O[C@@H]2O[C@H](C)C[C@H](N(C)C)[C@H]2O)[C@](C)(O)C[C@@H](C)CN(CCCNC(=S)NCc2ccccc2)[C@H](C)[C@@H](O)[C@]1(C)O [Compound 13]	0.291 (≈ 0.309 µM)	0.18 (≈ 0.191 µM)	0.189 (≈ 0.2 µM)
CC[C@H]1OC(=O)[C@H](C)[C@@H](O[C@H]2C[C@@](C)(OC)[C@@H](O)[C@H](C)O2)[C@H](C)[C@@H](O[C@@H]2O[C@H](C)C[C@H](N(C)C)[C@H]2O)[C@](C)(O)C[C@@H](C)CN(CCCNC(=S)NCCc2ccccc2)[C@H](C)[C@@H](O)[C@]1(C)O [Compound 14]	0.232 (≈ 0.242 µM)	0.18 (≈ 0.188 µM)	0.215 (≈ 0.225 µM)
CC[C@H]1OC(=O)[C@H](C)[C@@H](O)[C@H](C)[C@@H](O[C@@H]2O[C@H](C)C[C@H](N(C)C)[C@H]2O)[C@](C)(O)C[C@@H](C)CN(CCCN(CCC#N)C(=S)NCCc2ccccc2)[C@H](C)[C@@H](O)[C@]1(C)O [Compound 31]	0.192 (≈ 0.226 µM)	–	0.157 (≈ 0.184 µM)
CC[C@H]1OC(=O)[C@H](C)[C@@H](O)[C@H](C)[C@@H](O[C@@H]2O[C@H](C)C[C@H](N(C)C)[C@H]2O)[C@](C)(O)C[C@@H](C)CN(CCCN(CCC#N)C(=S)NCCCc2ccccc2)[C@H](C)[C@@H](O)[C@]1(C)O [Compound 32]	0.155 (≈ 0.18 µM)	–	0.106 (≈ 0.122 µM)
CC[C@H]1OC(=O)[C@H](C)[C@@H](O)[C@H](C)[C@@H](O[C@@H]2O[C@H](C)C[C@H](N(C)C)[C@H]2O)[C@](C)(O)C[C@@H](C)CN(CCCN(CCC#N)C(=O)Nc2ccc(Cl)cc2Cl)[C@H](C)[C@@H](O)[C@]1(C)O [Compound 33]	0.962 (≈ 1.1 µM)	–	0.277 (≈ 0.316 µM)
CC[C@H]1OC(=O)[C@H](C)[C@@H](O)[C@H](C)[C@@H](O[C@@H]2O[C@H](C)C[C@H](N(C)C)[C@H]2O)[C@](C)(O)C[C@@H](C)CN(CCCN(CCC#N)C(=O)Nc2ccc3ccccc3c2)[C@H](C)[C@@H](O)[C@]1(C)O [Compound 34]	0.203 (≈ 0.237 µM)	–	0.191 (≈ 0.223 µM)
